Data reported in US9073876B2, “Flap modulators” (JANSSEN PHARMACEUTICA NV, priority 2013, dated 2015).
Structures can show the parent of a compound that is named as a salt.

Target: human FLAP (Homo sapiens (Human), UniProt P20292)
Assay: FLAP binding assay (HTRF)
Conditions: human FLAP-containing membranes, HTRF format; average of two assay plates, duplicates; read-out: FLAP Binding wild type HTRF Ki
Method: The ability of the compounds of the present invention to treat a FLAP-mediated disease and/or disorder, or associated symptoms or complications thereof, was determined using the following procedures. Binding assay data represent the average value obtained from two different assay plates, with samples run in duplicate on each plate. Human whole blood assay data represent a single replicate on an assay plate using whole blood from at least one healthy donor.
Data are expressed as a HTRF ratio.

Sequence of human FLAP (P20292 whole entry): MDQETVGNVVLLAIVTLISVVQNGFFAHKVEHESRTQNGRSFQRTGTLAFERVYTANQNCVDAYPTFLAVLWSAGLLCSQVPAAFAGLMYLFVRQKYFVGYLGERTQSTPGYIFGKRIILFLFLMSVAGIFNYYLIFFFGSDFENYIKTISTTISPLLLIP

SMILES | Ki [nM]
COc1c(Br)ccc(-c2cnc(N)cn2)c1F [Example 210, 5-(4-bromo-2-fluoro-3-methoxyphenyl)-pyrazin-2-amine] | 2500
Cn1ccnc1COc1c(C2CCC2)ccc(-c2cnc(N)cn2)c1F [Example 280, 5-{4-Cyclobutyl-2-fluoro-3-[(1-methyl-1H-imidazol-2-yl)methoxy]phenyl}pyrazin-2-amine trifluoroacetic acid salt] | > 10000
N#Cc1nc(N)ncc1Oc1c(C2CCC2)ccc(-c2cnc(N)cn2)c1F [Example 273, 2-Amino-5-[3-(5-aminopyrazin-2-yl)-6-cyclobutyl-2-fluorophenoxy]pyrimidine-4-carbonitrile] | > 10000
Nc1ccc(-c2ccc(C3CCC3)c(Oc3cc(O)ncn3)c2F)nn1 [Example 233, 6-(3-(6-aminopyridazin-3-yl)-6-cyclobutyl-2-fluorophenoxy)pyrimidin-4-ol] | 1680
Nc1cnc(-c2ccc(C3CCC3)c(OCc3ccccc3F)c2F)cn1 [Example 30, 5-{4-Cyclobutyl-2-fluoro-3-[(2-fluorobenzyl)oxy]phenyl}pyrazin-2-amine] | 354
Nc1cnc(-c2ccc(C3CCC3)c(OCc3nc4ccccc4s3)c2F)cn1 [Example 283, 5-[3-(1,3-Benzothiazol-2-ylmethoxy)-4-cyclobutyl-2-fluorophenyl]pyrazin-2-amine trifluoroacetic acid salt] | 97.6
Nc1cnc(-c2ccc(C3CCC3)c(OCc3ccc(OC(F)(F)F)cc3)c2F)cn1 [Example 10, 5-(4-Cyclobutyl-2-fluoro-3-{[4-(trifluoromethoxy)benzyl]oxy}phenyl)-pyrazin-2-amine] | 866
Nc1cnc(-c2ccc(C3CCC3)c(OCc3cc(Cl)ccc3C(F)(F)F)c2F)cn1 [Example 43, 5-(3-{[5-Chloro-2-(trifluoromethyl)benzyl]oxy}-4-cyclobutyl-2-fluorophenyl)pyrazin-2-amine] | 430
Nc1ccc(-c2ccc(C3CCC3)c(O)c2F)nn1 [Example 223, 3-(6-aminopyridazin-3-yl)-6-cyclobutyl-2-fluorophenol] | > 10000
CC(C)(C)c1ccc(-c2cnc(N)cn2)cc1OCc1ccccc1 [Example 215, 5-[3-(Benzyloxy)-4-tert-butylphenyl]pyrazin-2-amine] | 620
Nc1cnc(-c2ccc(C3CCC3)c(OCC(O)CN3CCC(O)C3)c2F)cn1 (mixture of isomers) [Example 308, diastereomeric mixture 1-{3-[3-(5-Aminopyrazin-2-yl)-6-cyclobutyl-2-fluorophenoxy]-2-hydroxypropyl}pyrrolidin-3-ol] | > 10000
Nc1cnc(-c2ccc(C3CCC3)c(OCc3cccc(C(F)(F)F)c3Cl)c2F)cn1 [Example 42, 5-(3-{[2-Chloro-3-(trifluoromethyl)benzyl]oxy}-4-cyclobutyl-2-fluorophenyl)pyrazin-2-amine] | 2000
CC(C)NCC(O)COc1c(C2CCC2)ccc(-c2cnc(N)cn2)c1F (racemic) [Example 305, racemic 1-[3-(5-Aminopyrazin-2-yl)-6-cyclobutyl-2-fluorophenoxy]-3-[(1-methylethyl)amino]propan-2-ol] | > 10000
Nc1cnc(-c2ccc(C3CCC3)c(OCC3CCCN3)c2F)cn1 (racemic) [Example 302, racemic 5-[4-Cyclobutyl-2-fluoro-3-(pyrrolidin-2-ylmethoxy)phenyl]pyrazin-2-amine] | > 10000
Nc1cnc(-c2ccc(C3CCC3)c(OCc3cccnn3)c2F)cn1 [Example 288, 5-[4-Cyclobutyl-2-fluoro-3-(pyridazin-3-ylmethoxy)phenyl]pyrazin-2-amine trifluoroacetic acid salt] | 365
Nc1cnc(-c2ccc(C3CCC3)c(OCC(O)CN3CCCCC3)c2F)cn1 (racemic) [Example 303, racemic 5 1-[3-(5-Aminopyrazin-2-yl)-6-cyclobutyl-2-fluorophenoxy]-3-piperidin-1-ylpropan-2-ol] | > 10000
CS(=O)(=O)c1ccc(Oc2c(C3CCC3)ccc(-c3cnc(N)cn3)c2F)c(C(F)(F)F)c1 [Example 127, 5-(4-cyclobutyl-2-fluoro-3-(4-(methylsulfonyl)-2-(trifluoro-methyl)phenoxy)phenyl)pyrazin-2-amine] | 2200
Nc1cnc(-c2ccc(C3CCC3)c(Oc3cc(C(F)(F)F)ncn3)c2F)cn1 [Example 125, 5-(4-Cyclobutyl-2-fluoro-3-{[6-(trifluoromethyl)pyrimidin-4-yl]oxy}phenyl)pyrazin-2-amine] | 250
COc1c(C2CCCC2)ccc(-c2cnc(N)cn2)c1F [Example 211, 5-(4-Cyclopentyl-2-fluoro-3-methoxyphenyl)pyrazin-2-amine] | 527

Second part, the compound after the results:

Ki [nM] | SMILES
> 10000 | CS(=O)(=O)c1cc(C#N)ccc1Oc1c(C2CCC2)ccc(-c2cnc(N)cn2)c1F [Example 265, 4-[3-(5-Aminopyrazin-2-yl)-6-cyclobutyl-2-fluorophenoxy]-3-(methylsulfonyl)benzonitrile]
1940 | COc1c(C2CCC2)ccc(-c2cnc3[nH]cnc3n2)c1F [Example 182, 5-(4-cyclobutyl-2-fluoro-3-methoxyphenyl)-1H-imidazo[4,5-b]pyrazine]
866 | Nc1cnc(-c2ccc(Cl)c(OCc3ccccc3)c2F)cn1 [Example 216, 5-[3-(Benzyloxy)-4-chloro-2-fluorophenyl]pyrazin-2-amine]
620 | Nc1cnc(-c2ccc(C3CCC3)c(OCC3CCCCC3)c2F)cn1 [Example 71, 5-[4-Cyclobutyl-3-(cyclohexylmethoxy)-2-fluorophenyl]pyrazin-2-amine]
304 | Nc1cnc(-c2ccc(C3CCC3)c(OCC3CCC3)c2F)cn1 [Example 82, 5-[4-Cyclobutyl-3-(cyclobutylmethoxy)-2-fluorophenyl]pyrazin-2-amine]
2140 | Nc1ccc(-c2ccc(C3CCC3)c(Oc3ncccn3)c2F)nn1 [Example 231, 6-(4-cyclobutyl-2-fluoro-3-(pyrimidin-2-yloxy)phenyl)pyridazin-3-amine]
2240 | CN(C)CCNc1nccc(Oc2c(C3CCC3)ccc(-c3cnc(N)cn3)c2F)n1 [Example 156, N′-{4-[3-(5-Aminopyrazin-2-yl)-6-cyclobutyl-2-fluorophenoxy]pyrimidin-2-yl}-N,N-dimethylethane-1,2-diamine hydrochloride]
1590 | COc1cc(Oc2c(C3CCC3)ccc(-c3ccc(N)nn3)c2F)ncn1 [Example 232, 6-(4-cyclobutyl-2-fluoro-3-((6-methoxypyrimidin-4-yl)oxy)phenyl)pyridazin-3-amine]
> 10000 | Nc1cnc(-c2ccc(C3CCC3)c(Oc3ccc(C(F)(F)F)cc3C(F)(F)F)c2F)cn1 [Example 266, 5-{3-[2,4-Bis(trifluoromethyl)phenoxy]-4-cyclobutyl-2-fluorophenyl}pyrazin-2-amine]
2500 | CS(=O)(=O)c1ccccc1Oc1c(C2CCC2)ccc(-c2cnc(N)cn2)c1F [Example 117, 5-{4-Cyclobutyl-2-fluoro-3-[2-(methylsulfonyl)phenoxy]phenyl}pyrazin-2-amine]
304 | Nc1cnc(-c2ccc(C3CCC3)c(Oc3ccc(C(F)(F)F)c(C(F)(F)F)c3)c2F)cn1 [Example 120, 5-{3-[3,4-Bis(trifluoromethyl)phenoxy]-4-cyclobutyl-2-fluorophenyl}pyrazin-2-amine]
> 10000 | Nc1cnc(-c2ccc(C3CCC3)c(OCC3CNC3)c2F)cn1 [Example 301, 5-[3-(Azetidin-3-ylmethoxy)-4-cyclobutyl-2-fluorophenyl]pyrazin-2-amine]
528 | CC(C)CCc1ccc(-c2cnc(N)cn2)c(F)c1Oc1nccc(N)n1 [Example 327, 2-(3-(5-Aminopyrazin-2-yl)-2-fluoro-6-isopentylphenoxy)pyrimidin-4-amine]
297 | Nc1cnc(-c2ccc(C3CCC3)c(Oc3ccc(C(F)(F)F)nc3)c2F)cn1 [Example 128, 5-(4-Cyclobutyl-2-fluoro-3-{[6-(trifluoromethyl)pyridin-3-yl]oxy}phenyl)pyrazin-2-amine]
250 | Nc1cnc(-c2ccc(C3CCC3)c(Oc3ncccc3C(F)(F)F)c2F)cn1 [Example 121, 5-(4-Cyclobutyl-2-fluoro-3-{[3-(trifluoromethyl)pyridin-2-yl]oxy}phenyl)pyrazin-2-amine]
> 10000 | Nc1cnc(-c2ccc(C3CCC3)c(OCC(O)CN3CCNCC3)c2F)cn1 (racemic) [Example 309, racemic 1-[3-(5-Aminopyrazin-2-yl)-6-cyclobutyl-2-fluorophenoxy]-3-piperazin-1-ylpropan-2-ol]
612 | Nc1cnc(-c2ccc(C3CCC3)c(OCc3ccc(Cl)cc3Cl)c2F)cn1 [Example 40, 5-{4-Cyclobutyl-3-[(2,4-dichlorobenzyl)oxy]-2-fluorophenyl}pyrazin-2-amine]
> 10000 | Nc1cnc(-c2ccc(C3CCC3)c(OCC3CCCNC3)c2F)cn1 (racemic) [Example 299, racemic 5-[4-Cyclobutyl-2-fluoro-3-(piperidin-3-ylmethoxy)phenyl]pyrazin-2-amine]
250 | Nc1cnc(-c2ccc(C3CCC3)c(Oc3cnc(C(F)(F)F)cn3)c2F)cn1 [Example 105, 5-(4-Cyclobutyl-2-fluoro-3-{[5-(trifluoromethyl)pyrazin-2-yl]oxy}phenyl)pyrazin-2-amine]
992 | Nc1cnc(-c2ccc(C3CCC3)c(OCC(O)CO)c2F)cn1 (racemic) [Example 254, 3-(3-(5-Aminopyrazin-2-yl)-6-cyclobutyl-2-fluorophenoxy)propane-1,2-diol]
691 | NCCOc1c(C2CCC2)ccc(-c2cnc(N)cn2)c1F [Example 294, 5-[3-(2-aminoethoxy)-4-cyclobutyl-2-fluorophenyl]pyrazin-2-amine]
289 | CCc1ccc(-c2cnc(N)cn2)c(F)c1Oc1ncccn1 [Example 316, 5-[4-Ethyl-2-fluoro-3-(pyrimidin-2-yloxy)phenyl]pyrazin-2-amine]
